Measurements reported in patent publication US12390423B2 (priority 2019, dated 2025).

Legend:
INS-1 (832/13) cells = test: Mitochondrial ROS (MitoSOX) and membrane potential (JC-1) in INS-1 (832/13) cells; format: cell-based, rat; conditions: 25 μM AvoB, 0.5 mM palmitate, 24 h
Protocol: For all ROS studies, INS-1 (832/13) cells and C2C12 myotubes were treated with or without palmitate and FAO inhibitors for 24 h in low glucose cell culture media as described for the FAO assay. After treatment, cells were trypsinized and re-suspended in PBS containing 5 μM of the fluorescent dye MitoSOX® (Molecular Probes, Invitrogen) and allowed to incubate for 5-15 minutes in a humidified atmosphere containing 5% CO2 at 37° C. Cells were then washed in PBS, placed in a 96 well plate and fluorescence was measured by flow cytometry. ROS was quantified by normalizing the mean fluorescence values of live gated cells to vehicle control. Mitochondrial membrane potential (MMP) in INS-1 (832/13) and C2C12 myotubes was measured using the cationic fluorescent dye JC-1 (Molecular Probes). […] JC-1 fluoresces green in the cytosol where it exists as a monomer, after entering the mitochondria JC-1 monomers form J aggregates and fluoresce red, thus the red/green fluorescence ratio is used to determine MMP. […] Cells were then washed in PBS, placed in a 96 well plate and fluorescence was measured by flow cytometry. MMP was quantified by normalizing the mean fluorescence values of live gated cells to vehicle control. […] Cells were treated, washed and collected as described and incubated with 0.35 μM NAO and green fluorescence was measured using flow cytometry. […]

C2C12 myotubes [1] = test: Fatty acid oxidation ([1-14C]-palmitate) in C2C12 myotubes; format: cell-based, mouse; conditions: 25 μM AvoB, 0.5 mM palmitate-BSA/1 mM L-carnitine, 24 h
Protocol: FAO in cell lines was determined using established methods. […] [1-^14C]-palmitate was prepared and applied to cells as follows: purchased stock supplied in ethanol (PerkinElmer, MA, USA) was dried in vacuo and then re-suspended in a solution containing unlabeled carrier in BSA to yield a mixture of 7% BSA [w/v], 2.5 mM palmitate with [1-^14C]-palmitate at a final concentration of 10 μCi/mL. Following a 16 hour incubation at 37° C., the solution containing radiolabeled palmitate was diluted with respective serum free cell culture media (low glucose RPMI media for INS-1 (832/13) cells and low glucose DMEM for C2C12 myotubes) containing 1 mM L-carnitine to a final concentration of 0.3% BSA, 100 μM palmitate, and 0.4 μCi/mL [1-^14C]-palmitate. Following incubation of treated cells with [1-^14C]-palmitate, 400 μL of well media was transferred to acidification vials containing perchloric acid and capped with CO2 filter traps impregnated with 1M NaOH. […] The CO2 trap was transferred to scintillation vials containing 4 mL of scintillation fluid and complete FAO was quantified using a Tri-Carb 2910 TR liquid scintillation analyzer (PerkinElmer). The amount of radioactivity in the media was also determined after pelleting cells and debris (14,000×g, 10 min); this quantified acid soluble metabolites (ASMs), an indirect measure of incomplete FAO.

C2C12 myotubes [2] = test: Cellular ATP content in C2C12 myotubes; format: cell-based, mouse; conditions: 0.5 mM palmitate 24 h, AVO 25 μM, DCA 1 mM, TRI 25 μM
Protocol: Total cellular ATP content was determined using the ATP bioluminescent assay kit (Calbiochem, 119107). Briefly, cells were seeded in white walled 96-well plates (1.2×10^4 cells/well for INS-1 and 2×10^4 cells/well for C2C12) and treated for 24 h (C2C12 cells were differentiated for 5 days prior to treatments whereas INS-1 cells were treated 24 h after seeding). After treatment, culture media was removed, and cells were lysed with nucleotide releasing buffer with gentle shaking for 5 min. ATP monitoring enzyme was then added to cell lysates and plates and luminescence was read in a Biotek Synergy HT spectrophotometer (Biotek; Winooski, VT).

Q: How did the “Mitochondrial membrane potential (MMP, JC-1)” value (INS-1 (832/13) cells) turn out when avocatin B [AvoB] was run?
A: lowers palmitate-induced increases

Q: And the “Mitochondrial superoxide levels (MitoSOX Red)” value (INS-1 (832/13) cells)?
A: lowers palmitate-induced increases in mitochondrial superoxide levels

Q: What about the “Complete FAO ([1-14C]-palmitate oxidation to CO2)” value (C2C12 myotubes [1]) of the same substance?
A: inhibited complete FAO

Q: What about the “Incomplete FAO (ASM levels)” value (C2C12 myotubes [1]) of the same substance?
A: did not increase incomplete FAO

Q: And the “Total cellular ATP content” value (C2C12 myotubes [2])?
A: restored cellular ATP content to that of control cells
